{"source": "patent EP3431088A1", "about": "“MNTBAP FOR USE IN INDUCING A TRANSIENT IMMUNE TOLERANCE” (priority 2017, dated 2019)", "key": {"CD4": {"test_system": "CD4", "experiment": "Time-lapse microscopy of CD4 cell surface fluorescence", "type": "cell-based, murine", "conditions": "time lapse for 4 hours, 400 µM, vs control", "method": "Murine splenic CD4^+ T cells are first stained with CFSE, according to the manufacturer's recommendations (Invitrogen), and then with rat anti-mouse CD4-APC (RM4-5, BD Biosciences) mAb. After staining, cells are incubated in Ibidi's µ-chambers culture dish (Ibidi, Nanterre, France) in the thermo-regulated chamber of the Zeiss Axiovert 100 M confocal microscope. A time lapse acquisition is performed with a delay of 120 sec between frames. Each frame is illuminated using a 488 nm and 633 nm lasers, and fluorescence collected using 505-580 nm and 644-719 nm filters. The magnification is 40x/1.3 oil and images are saved as 8bits. The image stack is splitted using ImageJ-1.43, and images analyzed using CellProfiler 2.0.10415. The cell segmentation is performed on the CFSE fluorescence, and the fluorescence of the CD4 staining analyzed using the R software. Intensity is normalized to the maximum fluorescence measured at T0 for each condition."}, "[1]": {"test_system": "specific T-cell immune responses against OVA peptides", "experiment": "OVA peptides subcutaneous immunization, IFN-γ ELISPOT on spleen cells", "type": "in vivo, C57BL/6 mice", "conditions": "80 mg/kg IP daily 5 days, vs PBS + OVA / IFA", "method": "(§1) MnTBAP (Calbiochem, San Diego, USA or Enzo Life Sciences, Farmingdale, USA) is dissolved in 75 mM NaOH to constitute a 20 mM stock solution. MnTBAP is dissolved in the complete medium, used for in vitro treatment, containing RPMI-1640 supplemented with 10% heat-inactivated fetal calf serum, 100 U/ml penicillin/streptomycin, 2 mM glutamax and 50 µM β-mercaptoethanol β-ME). Hypertonic medium, used to block clathrin dependent endocytosis, is complete medium supplemented with 0.45 M sucrose. For in vivo treatment, the stock solution is diluted with PBS and administered at 80 mg/kg intraperitoneally daily during five days. Control animals are injected with equivalent volume of PBS.\nA mixture of chicken egg albumin (OVA) peptides is administrated subcutaneously in mice anesthetized by intraperitoneal injection of xylazine (10 mg/kg) and ketamine (100 mg/kg). OVA257-264 (SEQ ID NO: 3; SIINFEKL) (InvivoGen, San Diego, USA) is a class I (Kb)-restricted peptide epitope of OVA presented by the class I major histocompatibility complex molecule (CMH) H-2Kb. OVA323-339 (SEQ ID NO: 4; ISQAVHAAHAEINEAGR) (AnaSpec, San Jose, USA) is an H-2b-restricted OVA class II epitope. 100 µg of each peptide complexed with the same volume of incomplete Freund's adjuvant (IFA) (Sigma-Aldrich) are administrated. Controls are injected with PBS-IFA complexes. OVA peptides- and PBS-IFA complexes are injected two hours or 21 days post first intraperitoneal injection of MnTBAP (or PBS). Eight days post OVA peptides injection, mice are sacrificed and spleens harvested to analyze OVA-specific T cell response.\nSpleens are harvested to analyze the cellular immune anti-transgene response by T-cell cytokine response assay. Multiscreen-HA Assay System 96-well Filtration plates (Merck) are coated overnight with 2.5 µg/ml of anti-mouse IFN-γ purified mAb (eBiosciences) at 4°C, washed, and then blocked with RPMI 1640 medium (Life Technologies, Saint-Aubin, France) supplemented with 10% heat inactivated fetal bovine serum (FCS), 100U/ml penicillin/streptomycin (Thermo Fisher Scientific) and 2mM GlutaMAXTM-I (Life technologies) for 2 hours at 37°C. Plates are washed three times with RPMI 1640 medium without FCS. Splenocytes are added in duplicate to the IFN-γ-coated well (1 or 0.5 x 10^6 cells/well) and cultured in presence of Dby or Uty peptide (Genepep, Montpellier, France) at 2 µM or in presence of OVA peptides at 10 µg/ml. As a positive control, cells are stimulated with Concanavalin A (Sigma-Aldrich) at 1 µg/ml in each test. […] Spots are counted using an AID reader (Ceipheid Benelux, Louven, Belgium). Spot forming units (SFU) per million cells for each mouse are calculated as the average value of duplicate measures after subtraction of background values obtained with in vitro unstimulated splenocytes."}, "[2]": {"test_system": "Reactive Oxygen Species (ROS)", "experiment": "In vivo chemiluminescence imaging of localized inflammation (L-012)", "parameters": "species or system mice", "conditions": "4 days after first MnTBAP injection, IM rAAV gene transfer, vs PBS", "method": "as §1\nIntramuscular (IM) injection: Two hours post first intraperitoneal (IP) injection of MnTBAP, mice are anesthetized by IP injection of xylazine (10 mg/kg) and ketamine (100 mg/kg) and 25 µl of a rAAV2/1 CMV SGCA HY viral preparation containing 2.5.10^9 vg is injected in the left tibialis anterior muscle (TA). Controls are injected with PBS. Mice are sacrificed 15 days after vector injection and the injected muscles are harvested to perform histologic analysis. […]\nAfter mice isofluorane anaesthesia, 100 µl of L-012 solution (15 mg/ml) (Wako, Osaka, Japan) are administered intravenously in retro-orbital sinus 4 days after first MnTBAP injection. […] Radiance (ph/s/cm^2/sr) is measured for each Region of Interest (ROI)."}, "[3]": {"conditions": "OVA/IFA immunization 21 days after first injection"}, "[4]": {"conditions": "OVA/IFA immunization two hours after first injection"}}, "data": [{"smiles": "O=C(O)c1ccc(-c2c3nc(c(-c4ccc(C(=O)O)cc4)c4ccc([n-]4)c(-c4ccc(C(=O)O)cc4)c4nc(c(-c5ccc(C(=O)O)cc5)c5ccc2[n-]5)C=C4)C=C3)cc1.[Mn+3]", "note": "[MnTBAP, manganese [III] tetrakis (4-benzoic acid) porphyrin]", "values": [{"measurement": "CD4 cell surface fluorescence over time", "setting": "CD4", "result": "CD4 declines on CD4^+ T cells"}, {"measurement": "IFN-γ production by OVA-specific CD4^+ T cells", "setting": "[1]; [3]", "result": "produce low levels of IFN-γ with no significant differences"}, {"measurement": "IFN-γ production by OVA-specific CD8^+ T cells", "setting": "[1]; [3]", "result": "produce IFN-γ with no significant differences"}, {"measurement": "IFN-γ production by OVA-specific CD4^+ T cells", "setting": "[1]; [4]", "result": "not able to produce IFN-γ"}, {"measurement": "IFN-γ production by OVA-specific CD8^+ T cells", "setting": "[1]; [4]", "result": "not able to produce IFN-γ"}, {"measurement": "Reactive Oxygen Species (ROS), average radiance of left inferior limb", "setting": "[2]", "result": "produce less Reactive Oxygen Species (ROS)"}]}]}
